Where “and” joins values, the source holds several entries; their conditions need not be identical. Equal values may be shown once. Strand notation (5' to 3'): a small letter for the sugar, then the base; units joined by * are phosphorothioate-linked, units joined directly phosphodiester-linked; [ ] holds rarer units or linkages, { } end groups; capitals alone tell only the bases. [cagedT] = caged thymidine: thymidine bearing a photolabile caging group, removed by UV irradiation at 365 nm; [cageT] = thymidine carrying a photolabile caging group (caged thymidine), removed by 365 nm UV light; [NPOM-T] = NPOM-caged (photocaged) thymidine; d = 2'-deoxy (DNA)
What was measured:
[1] = system: non-caged complement (5′ CGAACCTGGTCGAAATCAG 3′); experiment: Melting temperatures of caged and non-caged PCR primers with complementary DNA; type: binding; settings: for Mp/° C. +UV: after 8 minutes irradiation at 365 nm; for Mp/° C. −UV: before UV, 1 μM primer and complementary DNA; for melting temperature depression: single caging group, versus P1, −UV
Protocol: The DNA oligomers P1-P7, consisting of 19 nucleotides, a typical length for PCR primers, and containing 0-4 caged thymidines have been synthesized (Table 1). These primers were than analyzed for their annealing and melting properties in the presence of a complementary oligonucleotide.
Melting curves were measured on a BioRad MyiQ RT-PCR thermocycler by conducting a sequence of 3 heating and cooling cycles (1 μM of both primer and complementary DNA with 12.5 μL iQ SYBR Green Supermix to a total volume of 25 μL; 40° C. to 80° C. with a 0.5° C./min ramp). The melting temperatures were determined to be 65.3° C. (P1), 62.1° C. (P2), 54.3° C. (P3), 55.5° C. (P4), and 50.0° C. (P6). […] This effect was less pronounced in P2, perhaps due to the caged T's close proximity to the 5′ terminus, which lead to a lower level of interference with the hybridization of neighboring nucleotides. With the incorporation of additional caging groups in P4-P7, melting temperatures decreased further. However, addition of a single caged thymidine close to the 5′ terminus of P3 had no effect in P4. […] In order to ensure a complete removal of the photolabile group, each primer was irradiated for 8 minutes at 365 nm, and then analyzed in the same melting temperature assay.

[2] = system: Renilla luciferase reporter gene; experiment: Renilla luciferase antisense assay in NIH 3T3 cells (dual reporter); type: cell-based, mouse; settings: for antisense activity / effect on the luciferase signal: NIH 3T3, without UV irradiation
From the text: The error bars represent the standard deviation of three independent experiments.
These antisense oligomers were transfected into mouse fibroblast cells (NIH 3T3) together with a dual reporter system encoding Renilla luciferase and firefly luciferase as a transfection control.

[3] = system: complementary RNA sequence (5′ UCCAGAACAAAGGAAACG 3′); experiment: Melting temperature of PS DNA/RNA hybrids before and after irradiation; type: binding; settings: PS DNA/RNA hybrid; for Mp/° C. −UV: before irradiation; for Mp/° C. +UV: after irradiation (5 min, 365 nm, 23 W)
From the text: The capacity of the three and four caging groups to inhibit hybridization of the caged PS DNA oligomer to the complementary RNA sequence (5′ UCCAGAACAAAGGAAACG 3′) [SEQ ID NO 14] was examined. Hybridization was monitored on a BioRad MyiQ RT-PCR thermocycler by conducting a sequence of 3 heating and cooling cycles. […] Complete hybridization was restored upon a 5-minute irradiation at 365 nm for both caged analogs (Table 2).

[4] = system: DNA template (plasmid DNA); experiment: Light-triggered polymerase chain reaction (activation and deactivation); type: biochemical
Protocol: The DNA template (1.5 ng/μL of plasmid DNA) was incubated in the presence of P5 and a reverse primer (5′[…]-GT 3′, [SEQ ID NO 11] 1 μM each; the same reverse primer was used in all PCRs) with nucleotide triphosphates (dNTPs, 0.3 mM each), in Taq Reaction Buffer (10 mM Tris-HCl, 50 mM. KCl, 1.5 mM MgCl2, pH 8.3) and water. Taq DNA Polymerase (3 units/μL) was added to initiate the reaction. Prior to placement in a PCR thermocycler (Eppendor Mastercycler) the reaction was either irradiated for 8 minutes at 365 nm, or maintained in the dark. An initial denaturation at 95° C. was performed, followed by 40 cycles of 95° C. (30 sec), 50° C. (30 sec), and 72° C. (1 min), with a final extension at 72° C. (2 min). The reactions were conducted in triplicate, visualized on a 1% agarose gel, and quantitated (all DNA was quantified by band integration in ethidium bromide stained agarose gels using Image Quant 5.2). […] This experiment represented the first example of a light-activated PCR. While we initially employed irradiation prior to the thermal cycling, temporal control was also achieved by initiating the reaction through irradiation at a specific timepoint. Here, an identical reaction with UV irradiating at cycle 15 was conducted. Prior to irradiation, no PCR product can be detected in reactions conducted with the caged primer P5. In contrast, the non-caged primer P1 lead to the expected exponential amplification.
After achieving photochemical control of the activation of PCR at a specific time point, the possibility to switch-off PCR activity via light irradiation was examined. This was accomplished by designing a self-complementary primer which was predisposed to form a hairpin, rather than act as a PCR primer. By installing caging groups on the complementary portion of this sequence it was possible to block self-hybridization, which enabled the polymerization reaction. The PCR was then stopped by removing the photoactive groups, leading to hairpin formation and primer deactivation (FIG. 7). In order to achieve photochemical deactivation, an appropriate hairpin primer P8 was designed (5′ […] 3′) [SEQ ID NO. 12], and a photocaged analog P9 was synthesized (5′ […] 3′) [SEQ ID NO. 13]. […] However, in the absence of light irradiation the caged hairpin primer P9 was successful in acting as a primer, yielding 137 ng of PCR product (not shown).
Light-regulatory mechanisms were also employed in a temporally controlled fashion by irradiating the caged primer after 10 cycles of PCR. The non-caged primer P8 was used as a control, as it formed a hairpin immediately, blocking Taq DNA polymerase and inhibiting amplification. Because the caged primer P9 was able to bind to the DNA template, amplification occurred. […] At the same point, amplification continued in the non-irradiated reaction with P9.

[5] = Stability of the caging group to PCR conditions; type: physicochemical; settings: elevated temperatures required for PCR
chordin = experiment: Light-regulation of morpholino activity in zebrafish embryos; type: in vivo
Protocol: Percentages represent the frequency of the pictured phenotype in live fish. A) Non-injected embryo (100%). B) Injection of the non-caged Chordin-0 MO (100%). C) Injection of the caged MO (Chordin-4) −UV irradiation (80%). D) Injection of the caged MO (Chordin-4) +UV irradiation for 60 sec at 365 nm (100%). Identical amounts were injected in each experiment. The expanded blood island (arrows) is indicative of the chordin phenotype.
Injections with the non-caged and caged morpholino oligomers containing four […] monomers targeting chordin were conducted. Zebrafish embryos were injected into the yolk sac at the 1-4 cell stage with ˜1 nl of 500 μm caged Chordin-4 morpholino (5′ AT*CCACAGCAGCCCCT*CCAT*CAT*CC 3′ [SEQ ID NO 2]; T* denotes the caged thymidine; containing 0.15% phenol red to verify injection). Immediately after injection, half of the injected embryos were exposed to 365 nm UV light for 60 sec. The other half was protected from light. Half of the uninjected control embryos were also exposed to 365 nm UV for 60 sec, and no phenotypic differences between ±UV were detected. All embryos were grown at 28° C. for about 28 hours before their phenotypes were photographed. The chordin gene induces dorsalization of the developing embryo and injection of an anti-chordin MO induces a phenotype resembling chordin null-mutant embryos by displaying abnormally shaped somites, an expanded blood island (see arrows in FIG. 5), an abnormal tail fin, and a reduced head (see FIG. 5B compared to the non-injected fish shown in FIG. 5A).

[6] = activation experiment, no UV irradiation, 40 cycles

**Q.** Which “Mp/° C. +UV” value [1] does the source give for “P7: caged primer 5′ CTGATTTCGACCAGGTTCG 3′, SEQ ID NO 9, probably four caged thymidines (DNA, [cagedT] at 2, 5, 7, 17, backbone not given here; PCR primer)” here?
**A.** The value was 64.2 ± 0.3 °C.

**Q.** What about the “Mp/° C. −UV” value [1] of the same molecule?
**A.** Its value is “No melting temperatures could be measured”.

**Q.** With “5. Control: control phosphorothioate DNA 5′ TCCAGAACAAAGGAAACG 3′, SEQ ID NO 15 (DNA dT*dC*dC*dA*dG*dA*dA*dC*dA*dA*dA*dG*dG*dA*dA*dA*dC*dG)” as the molecule, how does the “antisense activity / effect on the luciferase signal” value [2] read?
**A.** Its value is “no effect on the luciferase signal”.

**Q.** And the “Mp/° C. −UV” value [3]?
**A.** Its value is “No hybridization was detected”.

**Q.** What does the source list for “P5: primer with three caging groups distributed throughout the DNA oligomer, SEQ ID NO 7 (DNA CTGATTTCGACCAGGTTCG; DNA, [cageT] at 2, 7, 17, backbone not given here)”?
**A.** DNA amplification ([4]; UV irradiation at cycle 15): increases exponentially; PCR product ([4]; activation experiment, irradiated 8 minutes at 365 nm before cycling, 40 cycles): comparable amounts of PCR product as found in the reaction with P1; PCR product [4, 6]: only trace amounts; Mp/° C. +UV [1]: 64.2 ± 0.2 °C; Mp/° C. −UV [1]: No melting temperatures could be measured

**Q.** With “P2: primer 5′ CTGATTTCGACCAGGTTCG 3′ with a single caged thymidine close to the 5′ terminus, SEQ ID NO 4 (DNA, [cageT] at 2, backbone not given here)” as the molecule, how does the “Mp/° C. +UV” value [1] read?
**A.** The value was 64.1 ± 0.2 °C.

**Q.** What about the “Mp/° C. −UV” value [1] of the same molecule?
**A.** The value was 62.1 °C and 62.1 ± 0.7 °C.

**Q.** What about the melting temperature depression [1] of the same molecule?
**A.** Its melting temperature depression is 3.2 °C.

**Q.** With “P8: non-caged hairpin primer 5′ GGTCAGTAAATTGTTTTTCAATTTACTGACCG 3′, SEQ ID NO 12 (hairpin primer, further chemistry not given here) [reference compound]” as the molecule, how does the PCR product ([4]; deactivation (hairpin primer) experiment, no light irradiation, 25 cycles) read?
**A.** The PCR product was “very little PCR product”.

**Q.** Which PCR product [4, 6] does the source give for “P1: non-caged 19 nucleotide PCR primer 5′ CTGATTTCGACCAGGTTCG 3′, SEQ ID NO 3 (DNA, backbone not given here) [reference compound]” here?
**A.** The PCR product was “approximately 140 ng”.

**Q.** What about the “Mp/° C. +UV” value [1] of the same molecule?
**A.** Its value is 65.0 ± 0.8 °C.

**Q.** What about the “Mp/° C. −UV” value [1] of the same molecule?
**A.** The value was 65.3 °C and 65.3 ± 0.3 °C.

**Q.** With `Cc1cn(C2CC(O)C(CO)O2)c(=O)n(COC(C)c2cc3c(cc2[N+](=O)[O-])OCO3)c1=O` (stereo not drawn) [monomeric caged thymidine, Caged thymidine] as the molecule, how does the “stability of the caging group to PCR conditions” value [5] read?
**A.** Its value is “unaffected by the elevated temperatures”.

**Q.** With “Chordin-4: caged morpholino 5′ AT*CCACAGCAGCCCCT*CCAT*CAT*CC 3′, T* caged thymidine, four 21 monomers (DNA ATCCACAGCAGCCCCTCCATCATCC; morpholino, caged thymidines, chemistry not fully specified)” as the molecule, how does the “frequency of the pictured phenotype in live fish” value (chordin; +UV irradiation for 60 sec at 365 nm, chordin phenotype pictured) read?
**A.** The value was 100%.

**Q.** What about the “morpholino antisense activity (phenotype)” value (chordin; protected from light, about 28 hours at 28° C.) of the same molecule?
**A.** Its value is “completely inactive”.

**Q.** And the “frequency of the pictured phenotype in live fish” value (chordin; −UV irradiation, wild-type phenotype pictured)?
**A.** Its value is 80%.

**Q.** With “P4: P3 with an additional caged thymidine close to the 5′ terminus, SEQ ID NO 6 (DNA CTGATTTCGACCAGGTTCG; DNA, [cageT] at 2, 7, backbone not given here)” as the molecule, how does the “Mp/° C. +UV” value [1] read?
**A.** The value was 63.8 ± 0.3 °C.

**Q.** And the “Mp/° C. −UV” value [1]?
**A.** The value was 55.5 °C and 55.5 ± 0.5 °C.

**Q.** With “P3: primer 5′ CTGATTTCGACCAGGTTCG 3′ with a single caged thymidine, SEQ ID NO 5 (DNA, [cageT] at 7, backbone not given here)” as the molecule, how does the “Mp/° C. +UV” value [1] read?
**A.** The value was 64.1 ± 0.8 °C.

**Q.** And the “Mp/° C. −UV” value [1]?
**A.** The value was 54.3 °C and 54.3 ± 1.1 °C.

**Q.** And the melting temperature depression [1]?
**A.** Its melting temperature depression is 11.0 °C.

**Q.** What does the source list for “P6: primer with a cluster of three caged thymidines, SEQ ID NO 8 (DNA CTGATTTCGACCAGGTTCG; DNA, [cageT] at 5, 6, 7, backbone not given here)”?
**A.** Mp/° C. +UV [1]: 64.5 ± 0.5 °C; Mp/° C. −UV [1]: 50.0 °C and 50.0 ± 1.0 °C

**Q.** Which “antisense activity / effect on the luciferase signal” value [2] does the source give for “3-Caged: phosphorothioate DNA 5′ CGTTT*CCTTT*GTTCT*GGA 3′, T* NPOM-caged thymidine, SEQ ID NO 17 (DNA dC*dG*dT*dT*d[NPOM-T]*dC*dC*dT*dT*d[NPOM-T]*dG*dT*dT*dC*d[NPOM-T]*dG*dG*dA)” here?
**A.** Its value is “completely inhibited the antisense activity”.

**Q.** And the “Mp/° C. +UV” value [3]?
**A.** The value was 39.2 ± 0.6 °C.

**Q.** Which “down-regulation of the Renilla luciferase signal” value ([2]; NIH 3T3, no UV) does the source give for “7. Non-caged: non-caged phosphorothioate DNA targeting Renilla luciferase, 5′ CGTTTCCTTTGTTCTGGA 3′, SEQ ID NO 16” here?
**A.** The value was 70%.

**Q.** What about the “Mp/° C. +UV” value [3] of the same molecule?
**A.** The value was 39.3 ± 0.8 °C.

**Q.** And the “Mp/° C. −UV” value [3]?
**A.** Its value is 39.5 ± 0.5 °C.

**Q.** What about the “Mp/° C. −UV” value ([3]; listed as non-caged PS DNA) of the same molecule?
**A.** The value was “approximately 39 °C”.

Source: patent publication US8247540B2, “Caged nucleotides and oligonucleotides and their application” (priority 2008, dated 2012)
